Measurements published in BindingDB's records for doi:10.1016/j.bmc.2004.08.050 (Yamanouchi Pharmaceutical, 2004).

Legend:
Assay in all cases: HIV-1 RT Assay
[1] = target: T1, Gag-Pol polyprotein [588-1027]/[588-1147] (Human immunodeficiency virus 1, UniProt P04585)
T1 construct: 588-1027; 588-1147

[2] = target: T2, Gag-Pol polyprotein [588-1127,Y768C]/[588-1147,Y768C] (Human immunodeficiency virus 1, UniProt P04585, Y768C)
T2 construct: 588-1127; 588-1147

[3] = target: T3, Gag-Pol polyprotein [588-1027,K690N]/[588-1147,K690N] (Human immunodeficiency virus 1, UniProt P04585, K690N)
T3 construct: 588-1027; 588-1147

| SMILES | IC50 ([1]; pH 8.4, 37 °C) | IC50 ([2]; pH 8.4, 37 °C) | IC50 ([3]; pH 8.4, 37 °C) | IC50 [1] | IC50 [2] | IC50 [3] |
| --- | --- | --- | --- | --- | --- | --- |
| Cc1[nH]/c(=N/S(=O)(=O)c2cccc([N+](=O)[O-])c2)sc1C(C)(C)C [N-(5-tert-Butyl-4-methyl-1,3-thiazol-2-yl)-3-nitrobenzenesulfonamide] | 0.37 µM | 0.47 µM | 32 µM | – | – | – |
| Cc1c(C(C)(C)C)s/c(=N\S(=O)(=O)c2cccc([N+](=O)[O-])c2)n1C [3-substituted thiazolidene deriv. 17a] | 0.27 µM | 0.066 µM | 13 µM | – | – | – |
| CC(C)c1s/c(=N\S(=O)(=O)c2cccc([N+](=O)[O-])c2)n(C)c1C(F)(F)F [N-[(2Z)-3-methyl-5-(propan-2-yl)-4-(trifluoromethyl)-2,3-dihydro-1,3-thiazol-2-ylidene]-3-nitrobenzene-1-sulfonamide] | – | – | – | 0.6 µM | 0.26 µM | 42 µM |
| CC(=O)c1sc(=NS(=O)(=O)c2cccc([N+](=O)[O-])c2)n(C)c1C [N-[(2Z)-5-acetyl-3,4-dimethyl-2,3-dihydro-1,3-thiazol-2-ylidene]-3-nitrobenzene-1-sulfonamide] | – | – | – | > 50 µM | > 50 µM | > 50 µM |
| Cc1c(C(C)C)s/c(=N\S(=O)(=O)c2cccc([N+](=O)[O-])c2)n1C [N-(3,4-Dimethyl-5-isopropyl-1,3-thiazol-2(3H)-ylidene)-3-nitrobenzenesulfonamide] | 0.34 µM | 0.071 µM | 20 µM | – | – | – |
| CCn1c(C)c(C(C)(C)C)s/c1=N\S(=O)(=O)c1cccc([N+](=O)[O-])c1 [N-[(2Z)-5-tert-butyl-3-ethyl-4-methyl-2,3-dihydro-1,3-thiazol-2-ylidene]-3-nitrobenzene-1-sulfonamide] | – | – | – | 6 µM | 0.12 µM | > 50 µM |
| CC(C)c1s/c(=N\S(=O)(=O)c2cccc([N+](=O)[O-])c2)n(C)c1Cl [thiazolidenebenzenesulfonamide deriv. 17k] | – | – | – | 0.077 µM | 0.13 µM | 6.9 µM |
| CC(C)c1s/c(=N\S(=O)(=O)c2cccc([N+](=O)[O-])c2)n(C)c1C#N [N-(4-Cyano-5-isopropyl-3-methyl-1,3-thiazol-2(3H)-ylidene)-3-nitrobenzenesulfonamide] | – | – | – | 0.62 µM | 0.64 µM | > 50 µM |
| Cc1s/c(=N\S(=O)(=O)c2cccc([N+](=O)[O-])c2)n(C)c1C [3-nitro-N-[(2Z)-3,4,5-trimethyl-2,3-dihydro-1,3-thiazol-2-ylidene]benzene-1-sulfonamide] | 0.97 µM | 33 µM | > 50 µM | – | – | – |
| Cc1cs/c(=N\S(=O)(=O)c2cccc([N+](=O)[O-])c2)n1C [N-[(2Z)-3,4-dimethyl-2,3-dihydro-1,3-thiazol-2-ylidene]-3-nitrobenzene-1-sulfonamide] | > 50 µM | > 50 µM | > 50 µM | – | – | – |
| COC(=O)c1c(C(C)C)s/c(=N\S(=O)(=O)c2cccc([N+](=O)[O-])c2)n1C [Methyl 5-isopropyl-3-methyl-2-{[(3-nitrophenyl)-sulfonyl]imino}-2,3-dihydro-1,3-thiazole-4-carboxylate] | – | – | – | > 50 µM | > 25 µM | > 50 µM |
| C=Cc1s/c(=N\S(=O)(=O)c2cccc([N+](=O)[O-])c2)n(C)c1C [N-(3,4-Dimethyl-5-vinyl-1,3-thiazol-2(3H)-ylidene)-3-nitrobenzenesulfonamide] | – | – | – | 0.15 µM | 9.6 µM | 6.2 µM |
| CC(C)Cc1c(C(C)C)s/c(=N\S(=O)(=O)c2cccc([N+](=O)[O-])c2)n1C [N-(4-Isobutyl-5-isopropyl-3-methyl-1,3-thiazol-2(3H)-ylidene)-3-nitrobenzenesulfonamide] | – | – | – | > 50 µM | > 25 µM | > 50 µM |
| CCc1s/c(=N\S(=O)(=O)c2cccc([N+](=O)[O-])c2)n(C)c1C [N-[(2Z)-5-ethyl-3,4-dimethyl-2,3-dihydro-1,3-thiazol-2-ylidene]-3-nitrobenzene-1-sulfonamide] | 0.85 µM | 0.47 µM | 6.3 µM | – | – | – |
| CC(C)c1cn(C)/c(=N/S(=O)(=O)c2cccc([N+](=O)[O-])c2)s1 [N-[(2Z)-3-methyl-5-(propan-2-yl)-2,3-dihydro-1,3-thiazol-2-ylidene]-3-nitrobenzene-1-sulfonamide] | – | – | – | 0.6 µM | 0.7 µM | > 50 µM |
| CC(C)c1s/c(=N\S(=O)(=O)c2cccc([N+](=O)[O-])c2)n(C)c1C(N)=O [5-Isopropyl-3-methyl-2-{[(3-nitrophenyl)sulfonyl]imino}-2,3-dihydro-1,3-thiazole-4-carboxamide] | – | – | – | 39 µM | > 25 µM | > 50 µM |
